Measurements from US8956642B2, “Bupivacaine formulation in a polyorthoester carrier” (Medtronic, Inc., priority 2008, dated 2015).

Tests used:
[1] = system: acetic acid induced bladder hypermotility (frequency of bladder contraction reflexes); test: Epidural infusion of bupivacaine in rat model of bladder pain, intravesical acetic acid infusion; type: in vivo; settings: epidural infusion 25 μg/day
Description: (§1) FIG. 6 is a graphic representation of epidural infusion of bupivacaine in rats treated with an intravesical infusion of acetic acid as described in Example 4. Baseline bladder activity was measured before epidural drug treatment. The columns and error bars represent the mean and SEM values of 10 rats per group. Asterisks indicate statistically significant dose effects compared to baseline as determined by post-hoc Dunnett Multiple Comparison Test.
(§2) An animal model that has been used frequently to study pelvic pain conditions is a rat model of bladder pain. In this model, a female rat was lightly anesthetized with isoflurane and a transurethral catheter was placed into the bladder. The catheter was connected to a pressure transducer so that the pressure within the bladder could be continuously monitored and recorded over time. Fluid was continuously infused into the bladder using a syringe pump at a rate of 0.1 mL/min to cause the bladder to contract repeatedly each time it became full. This is referred to as a volume-evoked micturition reflex or contraction. […]
In order to evaluate the effects of epidurally administered analgesics on normal and painful bladder activity (frequency of reflex bladder contractions), test drugs were continuously administered via an epidural catheter with the tip placed in the mid-lumbar epidural space. […] In the experiments depicted in FIGS. 5 and 6, the baseline bladder activity was measured before implanting the epidural infusion system, the infusion system was implanted on day 0 and cystometrograms were recorded on three consecutive days during which bupivacaine (25 μg/day) was infused into the lumbar epidural space.
Bupivacaine at 25 μg/day reduced acetic acid induced bladder hypermotility by approximately 3 fold on days 2 and 3. The frequency of bladder contraction observed during acetic acid infusion and epidural bupivacaine administration was similar to the baseline bladder activity measured during saline infusion (0.206±0.046 day 3 acetic acid and epidural bupivacaine vs 0.295±0.035 baseline saline).

[2] = system: normal bladder activity (frequency of reflex bladder contractions); test: Epidural infusion of bupivacaine in rats, intravesical saline infusion (normal bladder activity, cystometrogram); type: in vivo, rat; settings: epidural infusion 25 μg/day, saline infusion into bladder
Description: as §1, with “5” for “6”, “saline.” for “acetic acid as described in Example 4.”, “treatment as described in Example 4.” for “treatment.”
as §2, with “contraction. A repeated series of bladder contractions (pressure spikes) over time was collected using this method. To mimic normal bladder activity, 0.9% saline was infused into the bladder; to mimic painful bladder activity, a dilute solution of acetic acid (0.5%) was infused into the bladder.” for “contraction.”

Compound: CCCCN1CCCCC1C(=O)Nc1c(C)cccc1C (centres unmarked) [bupivacaine, 1-butyl-N-(2,6-dimethylphenyl)piperidine-2-carboxamide]
- frequency of bladder contraction reflexes vs baseline ([1]; 0.5% acetic acid infusion into bladder, all three days): significantly reduced
- frequency of bladder contraction ([1]; acetic acid infusion, day 3, mean ± SEM): 0.206±0.046 reflexes per min
- reduction of acetic acid induced bladder hypermotility ([1]; days 2 and 3): approximately 3 fold
- effects on normal bladder activity measured during saline infusion ([2]; day 1, vs baseline): minimal effects
- contraction rate relative to the baseline reflex contraction rate ([2]; days two and three): statistically significant reductions
